According to ChEMBL document CHEMBL1140450, “On-resin cyclization of peptide ligands of the Vascular Endothelial Growth Factor Receptor 1 by copper(I)-catalyzed 1,3-dipolar azide-alkyne cycloaddition” (Bioorg Med Chem Lett, 2007):
Non-standard residues stand in square brackets, D forms with d. Residues, ends and D or L forms follow the SMILES beside them. *: point of attachment. X2 = [N-]=[N+]=N[C@@H](CCCCN)C(=O)*; Pra = C#CC[C@H](N)C(=O)O

Target: Vascular endothelial growth factor receptor 1 (Homo sapiens, UniProt P17948)
Sequence (P17948 whole entry): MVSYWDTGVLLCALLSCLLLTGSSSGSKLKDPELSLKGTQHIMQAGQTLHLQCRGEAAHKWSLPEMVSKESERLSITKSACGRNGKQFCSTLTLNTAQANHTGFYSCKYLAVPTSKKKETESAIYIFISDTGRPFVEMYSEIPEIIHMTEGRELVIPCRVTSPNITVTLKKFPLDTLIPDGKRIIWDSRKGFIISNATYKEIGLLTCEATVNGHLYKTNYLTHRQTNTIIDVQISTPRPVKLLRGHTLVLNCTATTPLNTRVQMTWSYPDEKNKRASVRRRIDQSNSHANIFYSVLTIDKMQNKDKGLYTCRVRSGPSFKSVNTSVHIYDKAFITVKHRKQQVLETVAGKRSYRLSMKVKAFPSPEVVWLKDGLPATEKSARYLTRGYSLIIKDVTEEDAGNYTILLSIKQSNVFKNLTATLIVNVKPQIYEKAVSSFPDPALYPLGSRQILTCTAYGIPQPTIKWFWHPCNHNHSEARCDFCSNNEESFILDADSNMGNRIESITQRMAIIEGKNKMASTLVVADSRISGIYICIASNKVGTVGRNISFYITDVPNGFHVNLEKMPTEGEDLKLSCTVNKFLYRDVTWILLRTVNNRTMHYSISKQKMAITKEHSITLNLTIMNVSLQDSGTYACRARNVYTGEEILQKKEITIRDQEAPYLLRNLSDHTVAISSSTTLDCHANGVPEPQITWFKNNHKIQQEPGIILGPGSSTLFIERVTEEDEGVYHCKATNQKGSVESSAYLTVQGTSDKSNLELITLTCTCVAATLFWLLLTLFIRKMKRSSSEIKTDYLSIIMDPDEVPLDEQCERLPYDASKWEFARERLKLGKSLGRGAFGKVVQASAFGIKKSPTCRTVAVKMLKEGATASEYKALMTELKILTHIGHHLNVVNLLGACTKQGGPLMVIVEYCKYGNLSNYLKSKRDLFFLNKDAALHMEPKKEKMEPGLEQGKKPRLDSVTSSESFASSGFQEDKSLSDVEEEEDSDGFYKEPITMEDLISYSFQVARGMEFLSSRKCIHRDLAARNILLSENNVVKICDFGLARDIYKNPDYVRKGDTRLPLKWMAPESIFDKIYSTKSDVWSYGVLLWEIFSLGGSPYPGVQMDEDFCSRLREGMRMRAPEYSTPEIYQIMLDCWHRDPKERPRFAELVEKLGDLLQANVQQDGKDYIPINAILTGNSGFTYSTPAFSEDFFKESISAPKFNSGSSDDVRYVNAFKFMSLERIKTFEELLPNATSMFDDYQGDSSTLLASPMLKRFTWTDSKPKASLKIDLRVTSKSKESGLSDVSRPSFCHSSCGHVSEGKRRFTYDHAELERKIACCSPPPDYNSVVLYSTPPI
Experiment: Displacement of biotinylated VEGF165 from human recombinant VEGFR1

Row | IC50 | Structure (SMILES)
1 | 121 µM | CSCC[C@@H]1NC(=O)[C@H](CCC(N)=O)NC(=O)[C@H](Cc2cnc[nH]2)NC(=O)Cn2cc(nn2)C[C@@H](C(N)=O)NC(=O)[C@H](Cc2ccc(O)cc2)NC(=O)[C@H](Cc2ccc(O)cc2)NC(=O)[C@H](Cc2ccccc2)NC1=O
2 | 151 µM | C#CC[C@H](NC(=O)[C@H](CCC(=O)O)NC(=O)[C@H](CC(C)C)NC(=O)[C@@H]1CCCN1C(=O)[C@H](CCC(=O)O)NC(=O)[C@H](CC(=O)O)NC(=O)[C@H](Cc1ccc(O)cc1)NC(=O)[C@H](CCCCN)N=[N+]=[N-])C(N)=O (X2-YDEPLE[Pra]-NH2)
